Key:
[1] = system: Mycobacterium tuberculosis Erdman (autoluminescent); assay: total FIC50 (Loewe) at 50% inhibition, three-drug combination (log2); higher = more antagonistic
Method: (§1)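 DiaMOND equipotent three-drug combination dose responses (10 doses, 1.5- or 2-fold spacing, centred on IC90) against autoluminescent M. tuberculosis Erdman in 8 in vitro models. Read-out is OD600, or luminescence for the intracellular and dormancy models, normalised to untreated wells. Hill-fit Einf, AUC25 and GRinf are potency metrics; FIC50 and FIC90 are total Loewe fractional inhibitory concentrations as log2 (negative = synergy).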

[2] = system: Mycobacterium tuberculosis Erdman (autoluminescent); assay: total FIC90 (Loewe) at 90% inhibition, three-drug combination (log2); higher = more antagonistic
Method: as §1

[3] = system: Mycobacterium tuberculosis Erdman (autoluminescent); assay: Einf, fitted maximum growth inhibition of three-drug combination (fraction); higher = stronger maximal inhibition
Method: as §1

[4] = system: Mycobacterium tuberculosis Erdman (autoluminescent); assay: AUC25, normalised area under dose response up to IC25 (three-drug combination) (fraction (0-1)); higher = more potent at low dose
Method: as §1

[5] = system: Mycobacterium tuberculosis Erdman (autoluminescent); assay: GRinf, maximum normalised growth rate inhibition (three-drug combination) (unitless (-1 to 1)); higher = less effect (negative = killing)
Method: as §1

NNC(=O)c1ccncc1 [isoniazid] + CO[C@H]1/C=C/O[C@@]2(C)Oc3c(C)c(O)c4c(O)c(c(/C=N/N5CCN(C6CCCC6)CC5)c(O)c4c3C2=O)NC(=O)/C(C)=C\C=C\[C@H](C)[C@H](O)[C@@H](C)[C@@H](O)[C@@H](C)[C@H](OC(C)=O)[C@@H]1C [rifapentine] + CO[C@H]1/C=C/O[C@@]2(C)Oc3c(C)c(O)c4c(O)c(c(/C=N/N5CCN(C)CC5)c(O)c4c3C2=O)NC(=O)/C(C)=C\C=C\[C@H](C)[C@H](O)[C@@H](C)[C@@H](O)[C@@H](C)[C@H](OC(C)=O)[C@@H]1C [rifampicin]
Conditions | AUC25, [4] | Einf, [3] | GRinf, [5] | total FIC50, [1] | total FIC90, [2]
in vitro model: acidic pH 5.7, time point: constant (~7 days, model-specific) | 0.0821 | 0.87 | -0.0825 | 0.753 | –
in vitro model: acidic pH 5.7, time point: terminal (~4-5 doublings, model-specific) | 0.0679 | 0.98 | -0.129 | 0.528 | 0.407
in vitro model: intracellular J774, time point: constant = terminal | – | 0.936 | -0.1 | – | 0.217

Conditions | AUC25, [4] | Einf, [3] | GRinf, [5] | total FIC50, [1] | total FIC90, [2]
in vitro model: butyrate, time point: constant (~7 days, model-specific) | 0.104 | 0.922 | 0.00523 | 0.263 | 0.467
in vitro model: butyrate, time point: terminal (~4-5 doublings, model-specific) | 0.0874 | 0.967 | 0.000636 | 0.203 | 0.338
in vitro model: cholesterol 0.05 mM, time point: constant (~7 days, model-specific) | 0.112 | 0.62 | 0.0102 | 0.806 | –
in vitro model: cholesterol 0.05 mM, time point: terminal (~4-5 doublings, model-specific) | 0.0884 | 0.883 | -0.129 | 0.447 | -0.00675
in vitro model: cholesterol-high 0.2 mM, time point: constant (~7 days, model-specific) | 0.068 | 0.913 | -0.352 | 0.176 | –
in vitro model: cholesterol-high 0.2 mM, time point: terminal (~4-5 doublings, model-specific) | 0.055 | 0.998 | -0.762 | 0.475 | 0.196
in vitro model: dormancy (butyrate + nitrate, low O2), time point: constant (~7 days, model-specific) | 0.0473 | 0.859 | 0.242 | -0.0392 | -0.445
in vitro model: dormancy (butyrate + nitrate, low O2), time point: terminal (~4-5 doublings, model-specific) | 0.0455 | 0.984 | -0.157 | -0.192 | -0.199
in vitro model: standard 7H9 glycerol, time point: constant = terminal | 0.0666 | 0.906 | 0.0924 | 0.523 | –
in vitro model: valerate, time point: constant (~7 days, model-specific) | 0.0385 | 0.881 | -0.0115 | 0.498 | –
in vitro model: valerate, time point: terminal (~4-5 doublings, model-specific) | 0.0262 | 0.941 | 0.00295 | 0.354 | 0.159

NNC(=O)c1ccncc1 [isoniazid] + COc1c(N2C[C@@H]3CCCN[C@@H]3C2)c(F)cc2c(=O)c(C(=O)O)cn(C3CC3)c12 [moxifloxacin] + CO[C@H]1/C=C/O[C@@]2(C)Oc3c(C)c(O)c4c(O)c(c(/C=N/N5CCN(C6CCCC6)CC5)c(O)c4c3C2=O)NC(=O)/C(C)=C\C=C\[C@H](C)[C@H](O)[C@@H](C)[C@@H](O)[C@@H](C)[C@H](OC(C)=O)[C@@H]1C [rifapentine]
Conditions | AUC25, [4] | Einf, [3] | GRinf, [5] | total FIC50, [1] | total FIC90, [2]
in vitro model: acidic pH 5.7, time point: constant (~7 days, model-specific) | 0.0764 | 0.856 | -0.0715 | 0.631 | –
in vitro model: acidic pH 5.7, time point: terminal (~4-5 doublings, model-specific) | 0.0472 | 0.974 | -0.112 | 0.694 | 0.483
in vitro model: intracellular J774, time point: constant = terminal | – | 0.952 | -0.208 | – | 0.563

Conditions | AUC25, [4] | Einf, [3] | GRinf, [5] | total FIC50, [1] | total FIC90, [2]
in vitro model: butyrate, time point: constant (~7 days, model-specific) | 0.0757 | 0.917 | 0.00281 | 0.673 | 0.414
in vitro model: butyrate, time point: terminal (~4-5 doublings, model-specific) | 0.0584 | 0.965 | 0.00571 | 0.595 | 0.447
in vitro model: cholesterol 0.05 mM, time point: constant (~7 days, model-specific) | 0.102 | 0.644 | -0.051 | 0.862 | –
in vitro model: cholesterol 0.05 mM, time point: terminal (~4-5 doublings, model-specific) | 0.0878 | 0.88 | -0.115 | 0.866 | 0.95
in vitro model: cholesterol-high 0.2 mM, time point: constant (~7 days, model-specific) | 0.0823 | 0.922 | -0.472 | 0.636 | –
in vitro model: cholesterol-high 0.2 mM, time point: terminal (~4-5 doublings, model-specific) | 0.0703 | 1 | -0.778 | 0.916 | 0.976
in vitro model: dormancy (butyrate + nitrate, low O2), time point: constant (~7 days, model-specific) | 0.0676 | 0.866 | 0.268 | 0.401 | 0.429
in vitro model: dormancy (butyrate + nitrate, low O2), time point: terminal (~4-5 doublings, model-specific) | 0.0486 | 0.97 | -0.0791 | 0.655 | 0.61
in vitro model: standard 7H9 glycerol, time point: constant = terminal | 0.0438 | 0.911 | 0.0464 | 0.774 | 0.752
in vitro model: valerate, time point: constant (~7 days, model-specific) | 0.0564 | 0.866 | -0.0209 | 0.608 | –
in vitro model: valerate, time point: terminal (~4-5 doublings, model-specific) | 0.0386 | 0.933 | -0.00377 | 0.659 | 0.621

NNC(=O)c1ccncc1 [isoniazid] + COc1c(N2C[C@@H]3CCCN[C@@H]3C2)c(F)cc2c(=O)c(C(=O)O)cn(C3CC3)c12 [moxifloxacin] + CO[C@H]1/C=C/O[C@@]2(C)Oc3c(C)c(O)c4c(O)c(c(/C=N/N5CCN(C)CC5)c(O)c4c3C2=O)NC(=O)/C(C)=C\C=C\[C@H](C)[C@H](O)[C@@H](C)[C@@H](O)[C@@H](C)[C@H](OC(C)=O)[C@@H]1C [rifampicin]
Conditions | AUC25, [4] | Einf, [3] | GRinf, [5] | total FIC50, [1] | total FIC90, [2]
in vitro model: acidic pH 5.7, time point: constant (~7 days, model-specific) | 0.0693 | 0.835 | -0.0692 | 0.568 | –
in vitro model: acidic pH 5.7, time point: terminal (~4-5 doublings, model-specific) | 0.0605 | 0.974 | -0.11 | 0.624 | 0.457
in vitro model: intracellular J774, time point: constant = terminal | – | 0.969 | -0.238 | – | 0.594

Conditions | AUC25, [4] | Einf, [3] | GRinf, [5] | total FIC50, [1] | total FIC90, [2]
in vitro model: butyrate, time point: constant (~7 days, model-specific) | 0.104 | 0.934 | -0.00353 | 0.315 | 0.977
in vitro model: butyrate, time point: terminal (~4-5 doublings, model-specific) | 0.0772 | 0.969 | 0.000303 | 0.345 | 0.38
in vitro model: cholesterol 0.05 mM, time point: constant (~7 days, model-specific) | 0.0843 | 0.603 | 0.0201 | 0.719 | –
in vitro model: cholesterol 0.05 mM, time point: terminal (~4-5 doublings, model-specific) | 0.0746 | 0.87 | -0.125 | 1.04 | 0.125
in vitro model: cholesterol-high 0.2 mM, time point: constant (~7 days, model-specific) | 0.0802 | 0.879 | -0.196 | 0.265 | –
in vitro model: cholesterol-high 0.2 mM, time point: terminal (~4-5 doublings, model-specific) | 0.0682 | 1 | -0.836 | 0.508 | 0.443
in vitro model: dormancy (butyrate + nitrate, low O2), time point: constant (~7 days, model-specific) | 0.0766 | 0.882 | 0.232 | 0.163 | -0.336
in vitro model: dormancy (butyrate + nitrate, low O2), time point: terminal (~4-5 doublings, model-specific) | 0.0621 | 0.98 | -0.102 | 0.14 | 0.342
in vitro model: standard 7H9 glycerol, time point: constant = terminal | 0.0275 | 0.873 | 0.197 | 0.736 | –
in vitro model: valerate, time point: constant (~7 days, model-specific) | 0.0382 | 0.865 | 0.0264 | 0.773 | –
in vitro model: valerate, time point: terminal (~4-5 doublings, model-specific) | 0.0263 | 0.93 | 0.0382 | 0.731 | 0.407
